Data reported in patent US20250066310A1, “MULTI-SUBSTITUTED URACIL DERIVATIVE AND PREPARATION METHOD THEREFOR AND APPLICATION THEREOF” (HANGZHOU ADAMERCK PHARMLABS INC., priority 2021, published 2025).

Key:
ICR mice = assay: Effect on in vivo bleeding time in mice (tail cut); settings: 100 mg/kg i.g. once daily for 4 days
Method: A normal control group (blank), positive control group (clopidogrel) and experimental groups were set up with 10 ICR mice (male, weighed about 25 g) in each group. Animals in each group were administered the corresponding drug solution by oral gavage (i.g.) at 0.1 ml/10 g body weight, and the blank control group was given distilled water, once daily for 4 days. On the 4th day, 1 h after the administration of the drug, the animals were anesthetized by intraperitoneal injection of sodium barbiturate at a dose of about 50 mg/kg, and 20 min later, the tails of the mice were cut at a distance of 3 mm from the tip of the tail, and at regular intervals, absorbent paper was used to dip the blood at the severed tails until no blood exuded, which was recorded as the bleeding time, and the results of the experiment were shown in Table 2.
Calculation equation for prolongation of bleeding time: […]

[1] = tested on: rats with focal cerebral ischemia (MCAO)/reperfusion; assay: Prophylactic administration, cerebral ischemia-reperfusion injury (MCAO/R) in rats; format: in vivo; settings: Mean ± SD, n = 8; for Cerebral infarction rate (%): 3 days before MCAO/R, 24 h after reperfusion; for behavioral score / cerebral water content (%): MCAO/R
Method: Experimental methods: SD rats were randomly divided into 6 groups, set as sham group, model control group, positive control drug ozagrel (6 mg/kg) group, and test drug compound 1-1 high (9 mg/kg), medium (3 mg/kg), and low (1 mg/kg) dose group. The administered groups were preadministered by tail vein injection, and the sham and model control groups were given an equal volume of saline, once a day for 3 consecutive days. Ten minutes after the last administration, the rat MCAO/R model was established, and reperfusion was performed 2 h after ischemia. 24 h after MCAO reperfusion, neurobehavioral scores were performed to determine the neurological function of rats; 2,3,5-triphenyltetrazolium chloride (TTC) staining method was used to determine the rate of cerebral infarction and cerebral water content in rats.

CCOC(=O)CCNC(=O)CCNc1cc(=O)n(C)c(=O)n1C [Compound 1-1]
Bleeding time prolongation (%) (ICR mice): −8.89% | Cerebral infarction rate (%) ([1]; 1 mg/kg tail vein): 25.20 ± 9.71% | behavioral score ([1]; 1 mg/kg tail vein): 2.63 ± 0.74 | cerebral water content (%) ([1]; 1 mg/kg tail vein): 81.81 ± 0.78% | Cerebral infarction rate (%) ([1]; 3 mg/kg tail vein): 22.74 ± 9.12% | behavioral score ([1]; 3 mg/kg tail vein): 2.00 ± 0.76 | cerebral water content (%) ([1]; 3 mg/kg tail vein): 81.57 ± 0.87% | Cerebral infarction rate (%) ([1]; 9 mg/kg tail vein): 17.22 ± 9.35 % | behavioral score ([1]; 9 mg/kg tail vein): 1.50 ± 0.53 | cerebral water content (%) ([1]; 9 mg/kg tail vein): 80.94 ± 0.92 %
